Experimental data reported in patent US11357229B2, “Composition, uses and preparation process thereof, as well as method to ensure high corn crop yield” (priority 2011, dated 2022).

Key:
Format in all cases: in vivo, Zea mays
corn [1] = experiment: Ethephon applied to corn at stage V6, Nova Mutum; chlorantraniliprole and cyproconazole+azoxystrobin added in all treatments; details: V6, 5 g ha^−1 a.i.
Protocol: Example 2—Effect of Growth Regulator Ethephon Applied to Corn at the Stage of Development V6
(§1) In the moment of the application, the insecticide chlorantraniliprole (25 g ha^−1 a.i.) and the fungicide cyproconazole+azoxystrobin (24+60 g ha^−1 a.i.) were added in all treatments, including the control.

corn [2] = experiment: Ethephon applied to corn at stage V8, Nova Mutum; methomyl and pyraclostrobin+epoxyconazole added in all treatments; details: V8, 5 g ha^−1 a.i.
Protocol: Example 1—Effect of Growth Regulator Ethephon Applied to Corn at the Stage of Development V8
(§2) In the moment of the application, the insecticide methomyl (215 g ha^−1 a.i.) and the fungicide pyraclostrobin+epoxyconazole (99.75+37.5 g ha^−1 a.i.) were added in all treatments, including the control.

corn [3] = experiment: BF 428-5 applied to corn at stage V6, Nova Mutum; chlorantraniliprole and cyproconazole+azoxystrobin added in all treatments; details: for Height (shoot length): 30 DAA; for Increased Yield: 100,000 plants/ha vs control at normal density
Protocol: Example 6—Effect of Growth Regulator BF 428-5 Applied to Corn at the Stage of Development V6
as §1

corn [4] = experiment: BF 428-5 applied to corn at stage V8, Nova Mutum; methomyl and pyraclostrobin+epoxyconazole added in all treatments; details: for Increased Yield: 100,000 plants/ha vs control at normal density
Protocol: Example 5—Effect of Growth Regulator BF 428-5 Applied to Corn at the Stage of Development V8
as §2

CSC(=O)c1cccc2nnsc12 [Acybenzolar-S-methyl, acybenzolar-S-methyl]
Ear Diameter (corn [1]): 34.7 mm
Ear Length (corn [1]): 21.9 cm
Yield (corn [1]): 2662.2 kg/ha
Height (shoot length) (corn [1]; 30 DAA): 195.2 cm
Population of corn plants 60,000 plants/ha, kg/corn plant (corn [1]; 60,000 plants/ha): 0.044 kg/corn plant
Ear Diameter (corn [2]): 53.7 mm
Ear Length (corn [2]): 26.5 cm
Yield (corn [2]): 4815.6 kg/ha
Height (shoot length) (corn [2]; 30 DAA): 206.8 cm
Population of corn plants 60,000 plants/ha, kg/corn plant (corn [2]; 60,000 plants/ha): 0.080 kg/corn plant

C[N+](C)(C)CCCl [BF 428-05, chlormequat chloride]
effects on the corn plant (corn [3]; V6): reduction in shoot length, increased formation of adventitious roots, strengthening of the stem, strengthening of the root system, increased ventilation in the culture, proper development of male and female inflorescences
effect on length and diameter of ears of corn (corn [3]; V6 (Table 11)): does not reduce
yield reduction (corn [3]; V6 (Table 11)): no yield reduction
Ear Diameter (corn [3]; V6, 42.5 g ha^−1 a.i.): 38.4 mm
Ear Length (corn [3]; V6, 42.5 g ha^−1 a.i.): 23.9 cm
Yield (corn [3]; V6, 42.5 g ha^−1 a.i.): 3126.7 kg/ha
Height (shoot length) (corn [3]; V6, 42.5 g ha^−1 a.i.): 206.0 cm
Population of corn plants 60,000 plants/ha, kg/corn plant (corn [3]; V6, 42.5 g ha^−1 a.i.): 0.052 kg/corn plant
Population of corn plants 100,000 plants/ha, kg/corn plant (corn [3]; V6, 42.5 g ha^−1 a.i.): 0.052 kg/corn plant
Yield estimates 100,000 plants/ha (corn [3]; V6, 42.5 g ha^−1 a.i.): 5211.2 kg/ha
Increased Yield (corn [3]; V6, 42.5 g ha^−1 a.i.): 80.5%
Ear Diameter (corn [3]; V6, 85 g ha^−1 a.i.): 37.0 mm
Ear Length (corn [3]; V6, 85 g ha^−1 a.i.): 22.9 cm
Yield (corn [3]; V6, 85 g ha^−1 a.i.): 1902.2 kg/ha
Height (shoot length) (corn [3]; V6, 85 g ha^−1 a.i.): 205.8 cm
Population of corn plants 60,000 plants/ha, kg/corn plant (corn [3]; V6, 85 g ha^−1 a.i.): 0.032 kg/corn plant
Population of corn plants 100,000 plants/ha, kg/corn plant (corn [3]; V6, 85 g ha^−1 a.i.): 0.032 kg/corn plant
Yield estimates 100,000 plants/ha (corn [3]; V6, 85 g ha^−1 a.i.): 3170.3 kg/ha
Increased Yield (corn [3]; V6, 85 g ha^−1 a.i.): 9.8%
Ear Diameter (corn [3]; V6, 127.5 g ha^−1 a.i.): 37.9 mm
Ear Length (corn [3]; V6, 127.5 g ha^−1 a.i.): 21.5 cm
Yield (corn [3]; V6, 127.5 g ha^−1 a.i.): 2500.0 kg/ha
Height (shoot length) (corn [3]; V6, 127.5 g ha^−1 a.i.): 200.3 cm
Population of corn plants 60,000 plants/ha, kg/corn plant (corn [3]; V6, 127.5 g ha^−1 a.i.): 0.042 kg/corn plant
Population of corn plants 100,000 plants/ha, kg/corn plant (corn [3]; V6, 127.5 g ha^−1 a.i.): 0.042 kg/corn plant
Yield estimates 100,000 plants/ha (corn [3]; V6, 127.5 g ha^−1 a.i.): 4166.7 kg/ha
Increased Yield (corn [3]; V6, 127.5 g ha^−1 a.i.): 44.3%
yield increases (corn [3]; V6, estimation at 100,000 plants per hectare vs control at normal density of sowing (Table 12)): more than 9.8%
effects on the corn plant (corn [4]; V8): reduction in shoot length, increased formation of adventitious roots, strengthening of the stem, strengthening of the root system, increased ventilation in the culture, proper development of male and female inflorescences
effect on length and diameter of ears of corn (corn [4]; V8 (Table 9)): does not reduce
yield reduction (corn [4]; V8 (Table 9)): no yield reduction
shoot length (corn [4]; V8, 30 DAA, all treatments with BF 428-5 (Table 9)): less than or equal to 218.8 cm
Ear Diameter (corn [4]; V8, 42.5 g ha^−1 a.i.): 54.3 mm
Ear Length (corn [4]; V8, 42.5 g ha^−1 a.i.): 27.8 cm
Yield (corn [4]; V8, 42.5 g ha^−1 a.i.): 5762.2 kg/ha
Height (shoot length) (corn [4]; V8, 42.5 g ha^−1 a.i., 30 DAA): 214.6 cm
Population of corn plants 60,000 plants/ha, kg/corn plant (corn [4]; V8, 42.5 g ha^−1 a.i.): 0.096 kg/corn plant
Population of corn plants 100,000 plants/ha, kg/corn plant (corn [4]; V8, 42.5 g ha^−1 a.i.): 0.096 kg/corn plant
Yield estimates 100,000 plants/ha (corn [4]; V8, 42.5 g ha^−1 a.i.): 9603.7 kg/ha
Increased Yield (corn [4]; V8, 42.5 g ha^−1 a.i.): 89.2%
Ear Diameter (corn [4]; V8, 85 g ha^−1 a.i.): 53.9 mm
Ear Length (corn [4]; V8, 85 g ha^−1 a.i.): 27.3 cm
Yield (corn [4]; V8, 85 g ha^−1 a.i.): 4355.6 kg/ha
Height (shoot length) (corn [4]; V8, 85 g ha^−1 a.i., 30 DAA): 218.8 cm
Population of corn plants 60,000 plants/ha, kg/corn plant (corn [4]; V8, 85 g ha^−1 a.i.): 0.073 kg/corn plant
Population of corn plants 100,000 plants/ha, kg/corn plant (corn [4]; V8, 85 g ha^−1 a.i.): 0.073 kg/corn plant
Yield estimates 100,000 plants/ha (corn [4]; V8, 85 g ha^−1 a.i.): 7259.3 kg/ha
Increased Yield (corn [4]; V8, 85 g ha^−1 a.i.): 43.0%
Ear Diameter (corn [4]; V8, 127.5 g ha^−1 a.i.): 54.2 mm
Ear Length (corn [4]; V8, 127.5 g ha^−1 a.i.): 27.2 cm
Yield (corn [4]; V8, 127.5 g ha^−1 a.i.): 4968.9 kg/ha
Height (shoot length) (corn [4]; V8, 127.5 g ha^−1 a.i., 30 DAA): 217.8 cm
Population of corn plants 60,000 plants/ha, kg/corn plant (corn [4]; V8, 127.5 g ha^−1 a.i.): 0.083 kg/corn plant
Population of corn plants 100,000 plants/ha, kg/corn plant (corn [4]; V8, 127.5 g ha^−1 a.i.): 0.083 kg/corn plant
Yield estimates 100,000 plants/ha (corn [4]; V8, 127.5 g ha^−1 a.i.): 8281.5 kg/ha
Increased Yield (corn [4]; V8, 127.5 g ha^−1 a.i.): 63.2%
yield increases (corn [4]; V8, estimation at 100,000 plants per hectare vs control at normal density of sowing (Table 10)): more than 43%
